# Source: ChEMBL document CHEMBL5321287, “Discovery, Synthesis, and Evaluation of Novel Dual Inhibitors of a Vascular Endothelial Growth Factor Receptor and Poly(ADP-Ribose) Polymerase for BRCA Wild-Type Breast Cancer Therapy” (J Med Chem, 2023)
# Activity calls are given as the source filed them. No cut-off for these calls is given here.
# Experiments:
# MCF7 [1] = experiment: Downregulation of Olaparib-induced PAR expression in human MCF7 cells at 4 uM incubated for 2 days by Western blot analysis; type: functional, cell-based; settings: time 2.0 day
# MDA-MB-231 [2] = experiment: Antimigratory activity in human MDA-MB-231 cells xenografted in lungs of BALB/c nude mouse assessed as increase in E-cadherin level in lungs at 50 mg/kg administered once a day measured after 14 days in presence of 1:1 of compound:Olaparib by IHC analysis; type: functional, organism-based; settings: time 14.0 day
# MDA-MB-231 [3] = experiment: Antimigratory activity in human MDA-MB-231 cells assessed as downregulation of MMP-2 level at 4 uM in presence of 1:1 of compound:Olaparib by DAPI staining based immunofluorescence analysis; type: functional, cell-based
# MDA-MB-231 [4] = experiment: Induction of cell cycle arrest at S phase in human MDA-MB-231 cells at 4 uM by Annexin-V-FLUOS staining based flow cytometry; type: functional
# MDA-MB-231 [5] = experiment: Induction of cell cycle arrest at G2/M phase in human MDA-MB-231 cells at 4 uM by Annexin-V-FLUOS staining based flow cytometry; type: functional
# MCF7 [6] = experiment: Antimigratory activity in human MCF7 cells assessed as downregulation of MMP-2 level at 4 uM in presence of 1:1 of compound:Olaparib by DAPI staining based immunofluorescence analysis; type: functional, cell-based
# MDA-MB-231 [7] = experiment: Antiproliferation activity against human MDA-MB-231 cells assessed as decrease in Ki67 expression at 4 uM incubated for 48 hrs in presence of 1:1 of compound:Olaparib by immunofluorescence analysis; type: functional, cell-based
# MDA-MB-231 [8] = experiment: Induction of apoptosis in human MDA-MB-231 cells assessed as increase in Bax level at 4 uM incubated for 2 days in presence of 1:1 of compound:Olaparib by immunoblot analysis; type: functional, cell-based; settings: time 2.0 day
# MDA-MB-231 [9] = experiment: Antimigratory activity in human MDA-MB-231 cells assessed as downregulation of MMP-2 level at 4 uM incubated for 2 days in presence of 1:1 of compound:Olaparib by immunoblot analysis; type: functional, cell-based; settings: time 2.0 day
# MCF7 [10] = experiment: Antimigratory activity in human MCF7 cells assessed as upregulation of E-cadherin level at 4 uM incubated for 2 days by immunoblot analysis; type: functional, cell-based; settings: time 2.0 day
# MDA-MB-231 [11] = experiment: Induction of HR DNA repair in human MDA-MB-231 cells assessed as decrease in RAD51 level at 4 uM incubated for 48 hrs in presence of 1:1 of compound:Olaparib by DAPI staining based immunofluorescence analysis; type: functional, cell-based
# MCF7 [12] = experiment: Induction of apoptosis in human MCF7 cells assessed as increase in cleaved caspase-3 level at 4 uM incubated for 2 days in presence of 1:1 of compound:Olaparib by immunoblot analysis; type: functional, cell-based; settings: time 2.0 day
# MCF7 [13] = experiment: Induction of HR DNA repair in human MCF7 cells assessed as decrease in RAD51 level at 4 uM incubated for 48 hrs in presence of 1:1 of compound:Olaparib by DAPI staining based immunofluorescence analysis; type: functional, cell-based
# MDA-MB-231 [14] = experiment: Antiinvasive activity against human MDA-MB-231 cells at 4 uM incubated for 12 hrs in presence of 1:1 of compound:Olaparib by transwell assay; type: functional, cell-based
# MDA-MB-231 [15] = experiment: Induction of HR DNA repair in human MDA-MB-231 cells xenografted in BALB/c nude mouse assessed as decrease in BRCA1 level at 50 mg/kg, po for 14 days in presence of 1:1 of compound:Olaparib by Western blot analysis; type: functional, organism-based; settings: time 14.0 day
# MDA-MB-231 [16] = experiment: Antimigratory activity in human MDA-MB-231 cells assessed as downregulation of MMP-2 level at 4 uM by DAPI staining based immunofluorescence analysis; type: functional, cell-based
# [17] = target: Vascular endothelial growth factor receptor 2 (Homo sapiens, UniProt P35968); settings: MDA-MB-231, dose 50.0 mg/kg, route po, time 14.0 day
# MDA-MB-231 [18] = experiment: Induction of HR DNA repair in human MDA-MB-231 cells xenografted in BALB/c nude mouse assessed as decrease in FOXM1 level at 50 mg/kg, po for 14 days in presence of 1:1 of compound:Olaparib by Western blot analysis; type: functional, organism-based; settings: time 14.0 day
# MCF7 [19] = experiment: Antimigratory activity against human MCF7 cells at 4 uM incubated for 1 hr in presence of 1:1 of compound:Olaparib by wound healing assay; type: functional, cell-based
# MDA-MB-231 [20] = experiment: Induction of HR DNA repair in human MDA-MB-231 cells xenografted in BALB/c nude mouse assessed as decrease in RAD51 level at 50 mg/kg, po for 14 days in presence of 1:1 of compound:Olaparib by Western blot analysis; type: functional, organism-based; settings: time 14.0 day
# MDA-MB-231 [21] = experiment: Induction of apoptosis in human MDA-MB-231 cells assessed as decrease in Bcl-2 level at 4 uM incubated for 2 days in presence of 1:1 of compound:Olaparib by immunoblot analysis; type: functional, cell-based; settings: time 2.0 day
# MDA-MB-231 [22] = experiment: Inhibition of colony formation in human MDA-MB-231 cells at 4 uM incubated for 10 days in presence of 1:1 of compound:Olaparib by crystal violet staining based assay; type: functional, cell-based; settings: time 10.0 day
# MDA-MB-436 = experiment: cells; settings: Homo sapiens
# MDA-MB-231 [23] = experiment: cells; settings: Homo sapiens
# MCF7 [24] = experiment: Antiproliferative activity against human MCF7 cells assessed as cell growth inhibition
# [25] = target: Vascular endothelial growth factor receptor 1 (Homo sapiens, UniProt P17948); experiment: Inhibition of VEGFR1 phosphorylation at tyr1333 residue in human MDA-MB-231 cells xenografted in BALB/c nude mouse at 50 mg/kg, po for 14 days in presence of 1:1 of compound:Olaparib by H and E staining based IHC analysis; type: organism-based; settings: time 14.0 day
# MDA-MB-231 [26] = experiment: Induction of HR DNA repair in human MDA-MB-231 cells xenografted in BALB/c nude mouse assessed as decrease in RAD51 level at 50 mg/kg, po for 14 days in presence of 1:1 of compound:Olaparib by H and E staining based IHC analysis; type: functional, organism-based; settings: time 14.0 day
# MCF7 [27] = experiment: Induction of cell cycle arrest at S phase in human MCF7 cells at 4 uM by Annexin-V-FLUOS staining based flow cytometry; type: functional
# MCF7 [28] = experiment: Induction of apoptosis in human MCF7 cells assessed as increase in Bax level at 4 uM incubated for 2 days in presence of 1:1 of compound:Olaparib by immunoblot analysis; type: functional, cell-based; settings: time 2.0 day
# MDA-MB-231 [29] = experiment: Downregulation of PAR expression in human MDA-MB-231 cells xenografted in BALB/c nude mouse at 25 to 50 mg/kg, po for 14 days in presence of 1:1 of compound:Olaparib by Western blot analysis; type: functional, organism-based; settings: dose 25-50 mg/kg, time 14.0 day
# MCF7 [30] = experiment: Antimigratory activity in human MCF7 cells assessed as upregulation of E-cadherin level at 4 uM in presence of 1:1 of compound:Olaparib by DAPI staining based immunofluorescence analysis; type: functional, cell-based
# MDA-MB-231 [31] = experiment: Induction of DNA damage in human MDA-MB-231 cells assessed as increase in comet tail length at 4 uM in presence 1:1 of Olaparib by alkaline comet assay; type: functional, cell-based
# MCF7 [32] = experiment: Induction of DNA damage in human MCF7 cells assessed as increase in gamma-H2AX level at 4 uM incubated for 48 hrs by DAPI staining based immunofluorescence analysis; type: functional, cell-based
# Vascular endothelial growth factor receptor 1, sequence (P17948 whole entry): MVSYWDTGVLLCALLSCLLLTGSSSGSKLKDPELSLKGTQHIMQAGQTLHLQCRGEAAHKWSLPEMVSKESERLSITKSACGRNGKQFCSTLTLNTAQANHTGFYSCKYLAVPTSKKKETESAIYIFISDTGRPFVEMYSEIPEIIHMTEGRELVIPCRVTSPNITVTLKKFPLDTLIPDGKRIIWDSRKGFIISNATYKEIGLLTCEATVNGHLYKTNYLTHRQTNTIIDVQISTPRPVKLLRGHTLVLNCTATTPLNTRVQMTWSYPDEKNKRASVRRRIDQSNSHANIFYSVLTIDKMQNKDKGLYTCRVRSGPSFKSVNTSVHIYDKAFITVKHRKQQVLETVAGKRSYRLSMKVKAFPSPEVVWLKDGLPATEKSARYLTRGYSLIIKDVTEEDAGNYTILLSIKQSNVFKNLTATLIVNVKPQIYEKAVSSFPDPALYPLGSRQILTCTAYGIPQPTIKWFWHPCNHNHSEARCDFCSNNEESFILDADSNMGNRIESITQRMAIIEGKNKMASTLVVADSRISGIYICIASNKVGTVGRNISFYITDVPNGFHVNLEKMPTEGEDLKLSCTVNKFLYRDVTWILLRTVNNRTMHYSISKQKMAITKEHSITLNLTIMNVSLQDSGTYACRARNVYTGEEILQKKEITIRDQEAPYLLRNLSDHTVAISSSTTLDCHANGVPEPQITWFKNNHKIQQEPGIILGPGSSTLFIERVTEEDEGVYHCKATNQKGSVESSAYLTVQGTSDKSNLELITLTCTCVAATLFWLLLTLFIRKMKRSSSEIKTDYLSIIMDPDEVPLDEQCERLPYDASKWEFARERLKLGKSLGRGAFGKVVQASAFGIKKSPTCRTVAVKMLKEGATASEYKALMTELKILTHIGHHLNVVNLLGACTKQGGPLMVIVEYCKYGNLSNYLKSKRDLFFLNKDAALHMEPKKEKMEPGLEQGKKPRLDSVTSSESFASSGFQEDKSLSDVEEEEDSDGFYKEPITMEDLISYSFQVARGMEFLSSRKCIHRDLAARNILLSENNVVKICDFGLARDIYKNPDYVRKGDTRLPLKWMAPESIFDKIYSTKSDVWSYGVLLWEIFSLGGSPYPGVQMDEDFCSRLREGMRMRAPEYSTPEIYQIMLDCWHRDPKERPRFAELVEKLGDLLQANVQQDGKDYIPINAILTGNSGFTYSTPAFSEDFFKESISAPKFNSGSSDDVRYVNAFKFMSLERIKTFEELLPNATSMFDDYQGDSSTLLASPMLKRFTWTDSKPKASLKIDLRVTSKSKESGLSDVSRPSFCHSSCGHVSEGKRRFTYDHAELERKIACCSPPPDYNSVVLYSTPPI
# Vascular endothelial growth factor receptor 2, sequence (P35968 whole entry): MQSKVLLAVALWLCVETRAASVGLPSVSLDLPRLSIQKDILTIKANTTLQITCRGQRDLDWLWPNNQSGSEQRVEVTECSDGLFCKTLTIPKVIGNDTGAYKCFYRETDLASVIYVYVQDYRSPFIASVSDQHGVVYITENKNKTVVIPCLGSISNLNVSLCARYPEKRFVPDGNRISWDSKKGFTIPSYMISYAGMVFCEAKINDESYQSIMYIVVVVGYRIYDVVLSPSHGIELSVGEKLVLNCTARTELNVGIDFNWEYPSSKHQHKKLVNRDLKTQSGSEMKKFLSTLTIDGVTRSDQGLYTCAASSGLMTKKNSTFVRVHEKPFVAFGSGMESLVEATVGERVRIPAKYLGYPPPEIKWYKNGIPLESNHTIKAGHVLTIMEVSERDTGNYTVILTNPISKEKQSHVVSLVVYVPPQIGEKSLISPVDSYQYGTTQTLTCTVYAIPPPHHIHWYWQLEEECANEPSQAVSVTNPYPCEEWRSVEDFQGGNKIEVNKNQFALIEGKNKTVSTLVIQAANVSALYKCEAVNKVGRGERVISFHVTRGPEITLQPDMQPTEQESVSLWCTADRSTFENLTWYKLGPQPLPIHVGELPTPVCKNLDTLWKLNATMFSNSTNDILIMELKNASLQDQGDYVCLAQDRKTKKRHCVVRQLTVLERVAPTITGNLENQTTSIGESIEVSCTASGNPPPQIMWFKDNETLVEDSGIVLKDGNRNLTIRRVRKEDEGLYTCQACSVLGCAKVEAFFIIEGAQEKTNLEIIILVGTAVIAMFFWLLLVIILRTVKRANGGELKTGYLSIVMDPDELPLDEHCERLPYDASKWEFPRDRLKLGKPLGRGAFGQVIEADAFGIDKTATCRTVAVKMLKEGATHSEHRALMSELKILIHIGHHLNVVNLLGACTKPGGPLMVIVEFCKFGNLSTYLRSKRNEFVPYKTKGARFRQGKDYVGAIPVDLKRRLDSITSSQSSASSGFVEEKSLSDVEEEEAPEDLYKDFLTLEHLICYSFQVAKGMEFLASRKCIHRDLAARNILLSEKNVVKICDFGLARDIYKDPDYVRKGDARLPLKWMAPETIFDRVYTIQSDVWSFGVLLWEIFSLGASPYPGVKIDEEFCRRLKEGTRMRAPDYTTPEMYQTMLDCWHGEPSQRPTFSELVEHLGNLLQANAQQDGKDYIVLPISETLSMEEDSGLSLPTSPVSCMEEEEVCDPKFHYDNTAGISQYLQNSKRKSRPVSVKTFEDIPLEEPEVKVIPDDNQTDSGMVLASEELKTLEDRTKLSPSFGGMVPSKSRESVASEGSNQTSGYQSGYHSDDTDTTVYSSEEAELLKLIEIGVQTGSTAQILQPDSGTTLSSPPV
smiles,measurement,setting,value
Cc1ccc(Nc2nccc(N(C)c3ccc4c(C)n(C)nc4c3)n2)cc1S(N)(=O)=O [PAZOPANIB],Activity,MCF7 [1],inactive
same,Activity,MDA-MB-231 [2],Active
same,Activity,MDA-MB-231 [3],Active
same,Activity,MDA-MB-231 [4],Active
same,Activity,MDA-MB-231 [5],Active
same,Activity,MCF7 [6],Active
same,Activity,MDA-MB-231 [7],Active
same,Activity,MDA-MB-231 [8],Active
same,Activity,MDA-MB-231 [9],Active
same,Activity,MCF7 [10],Active
same,Activity,MDA-MB-231 [11],Active
same,Activity,MCF7 [12],Active
same,Activity,MCF7 [13],Active
same,Activity,MDA-MB-231 [14],Active
same,Activity,MDA-MB-231 [15],Active
same,Activity,MDA-MB-231 [16],Active
same,inhibition,[17],Active
same,Activity,MDA-MB-231 [18],Active
same,Activity,MCF7 [19],Active
same,Activity,MDA-MB-231 [20],Active
same,Activity,MDA-MB-231 [21],Active
same,inhibition,MDA-MB-231 [22],Active
same,IC50,MDA-MB-436,> 10 µM
same,IC50,MDA-MB-231 [23],> 10 µM
same,IC50,MCF7 [24],> 10 µM
same,inhibition,[25],Active
same,Activity,MDA-MB-231 [26],Active
same,Activity,MCF7 [27],Active
same,Activity,MCF7 [28],Active
same,Activity,MDA-MB-231 [29],Active
same,Activity,MCF7 [30],Active
same,Activity,MDA-MB-231 [31],Active
same,Activity,MCF7 [32],Active
